Laboratory results as given in patent US20090099195A1 (ASTRAZENECA AB, priority 2007, published 2009).

Target: T1, hP2X3 (human Purinergic P2X receptors subtype 3), clone B (Homo sapiens, UniProt P56373)
T1 sequence (P56373 1-397): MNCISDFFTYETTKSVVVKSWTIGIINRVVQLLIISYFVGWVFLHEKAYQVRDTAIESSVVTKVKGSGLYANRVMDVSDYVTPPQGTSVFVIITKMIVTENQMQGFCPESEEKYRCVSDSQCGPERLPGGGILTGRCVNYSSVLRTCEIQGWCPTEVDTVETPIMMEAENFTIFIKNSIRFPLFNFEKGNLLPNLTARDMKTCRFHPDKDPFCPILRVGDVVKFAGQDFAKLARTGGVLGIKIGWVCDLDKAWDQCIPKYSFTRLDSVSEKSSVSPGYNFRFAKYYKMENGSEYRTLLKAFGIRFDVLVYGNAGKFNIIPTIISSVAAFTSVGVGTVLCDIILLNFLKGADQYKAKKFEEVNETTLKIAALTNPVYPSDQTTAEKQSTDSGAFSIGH
Assay: hP2X3 FLIPR calcium (Fluo-4) antagonist assay, clone B
Conditions: Human P2X3 FLIPR Clone B IC50 (nM), RLE cells expressing hP2X3 clone B (NM_002559); agonist 500 nM α,β-methylene-ATP

IC50	SMILES
180 nM	CCN1CCN(c2nc(NC(c3ccccc3)c3ccc(Cl)cc3)c3c(n2)C(=O)N(C(C)C)C3)CC1 (stereo not shown) [Example 18, 4-{[(4-chlorophenyl)(phenyl)methyl]amino}-2-(4-ethylpiperazin-1-yl)-6-isopropyl-5,6-dihydro-7H-pyrrolo[3,4-d]pyrimidin-7-one]
93 nM	CC(C)N1Cc2c(NC(c3ccccc3)c3ccc(Cl)cc3)nc(N(C)CCN(C)C)nc2C1=O (stereo not shown) [Example 19, 4-{[(4-chlorophenyl)(phenyl)methyl]amino}-2-[[2-(dimethylamino)ethyl](methyl)amino]-6-isopropyl-5,6-dihydro-7H-pyrrolo[3,4-d]pyrimidin-7-one]
100 nM	CC(C)N1Cc2c(NC(c3ccccc3)c3ccc(Cl)cc3)nc(N3CC4CC3CN4C)nc2C1=O (stereo not shown) [Example 20, 4-{[(4-chlorophenyl)(phenyl)methyl]amino}-6-isopropyl-2-(5-methyl-2,5-diazabicyclo[2.2.1]hept-2-yl)-5,6-dihydro-7H-pyrrolo[3,4-d]pyrimidin-7-one]
140 nM	CC(C)N1Cc2c(NC3c4cccnc4CCc4c(F)cccc43)nc(NCCN(C)C)nc2C1=O (stereo not shown) [Example 21, 2-{[2-(dimethylamino)ethyl]amino}-4-[(9-fluoro-10,11-dihydro-5H-benzo[4,5]cyclohepta[1,2-b]pyridin-5-yl)amino]-6-isopropyl-5,6-dihydro-7H-pyrrolo[3,4-d]pyrimidin-7-one]
270 nM	CC(C)N1Cc2c(NC3c4cc(F)ccc4CCc4ncccc43)nc(NCCN(C)C)nc2C1=O (stereo not shown) [Example 22, 2-{[2-(dimethylamino)ethyl]amino}-4-[(7-fluoro-10,11-dihydro-5H-benzo[4,5]cyclohepta[1,2-b]pyridin-5-yl)amino]-6-isopropyl-5,6-dihydro-7H-pyrrolo[3,4-d]pyrimidin-7-one]
210 nM	CC(C)N1Cc2c(NC(c3ccc(F)cc3)c3ccc(F)cc3)nc(N3CC4CC3CN4C)nc2C1=O (stereo not shown) [Example 23, 4-{[bis(4-fluorophenyl)methyl]amino}-6-isopropyl-2-(5-methyl-2,5-diazabicyclo[2.2.1]hept-2-yl)-5,6-dihydro-7H-pyrrolo[3,4-d]pyrimidin-7-one]
190 nM	CC(C)N1Cc2c(NC(c3ccc(F)cc3)c3ccc(F)cc3)nc(N(C)CCN(C)C)nc2C1=O [Example 24, 4-{[bis(4-fluorophenyl)methyl]amino}-2-[[2-(dimethylamino)ethyl](methyl)amino]-6-isopropyl-5,6-dihydro-7H-pyrrolo[3,4-d]pyrimidin-7-one]
140 nM	CC(=O)N1CCN(c2nc(NC(c3ccc(Cl)cc3)C3CC3)c3c(n2)C(=O)N(C(C)C)C3)CC1 (stereo not shown) [Example 27, 2-(4-acetylpiperazin-1-yl)-4-{[(4-chlorophenyl)(cyclopropyl)methyl]amino}-6-isopropyl-5,6-dihydro-7H-pyrrolo[3,4-d]pyrimidin-7-one]
200 nM	CC(=O)N1CCN(c2nc(NC(C)c3ccc(C(F)(F)F)cc3)c3c(n2)C(=O)N(C(C)C)C3)CC1 (stereo not shown) [Example 28, 2-(4-acetylpiperazin-1-yl)-6-isopropyl-4-({1-[4-(trifluoromethyl)phenyl]ethyl}amino)-5,6-dihydro-7H-pyrrolo[3,4-d]pyrimidin-7-one]
160 nM	CCCc1ccc(C(C)Nc2nc(N3CCN(C(C)=O)CC3)nc3c2CN(C(C)C)C3=O)cc1 (stereo not shown) [Example 29, 2-(4-acetylpiperazin-1-yl)-6-isopropyl-4-{[1-(4-propylphenyl)ethyl]amino}-5,6-dihydro-7H-pyrrolo[3,4-d]pyrimidin-7-one]
270 nM	CC(C)N1Cc2c(Nc3ccc(Cl)cc3)nc(N3CCN(C(=O)CC4NC(=O)NC4=O)CC3)nc2C1=O (stereo not shown) [Example 31, 5-[2-(4-{4-[(4-chlorophenyl)amino]-6-isopropyl-7-oxo-6,7-dihydro-5H-pyrrolo[3,4-d]pyrimidin-2-yl}piperazin-1-yl)-2-oxoethyl]imidazolidine-2,4-dione]
430 nM	CCC(Nc1nc(N2CCN(C(C)=O)CC2)nc2c1CN(C(C)C)C2=O)c1ccc(C(F)(F)F)cc1 (stereo not shown) [Example 32, 2-(4-acetylpiperazin-1-yl)-6-isopropyl-4-({1-[4-(trifluoromethyl)phenyl]propyl}amino)-5,6-dihydro-7H-pyrrolo[3,4-d]pyrimidin-7-one]
1200 nM	CC(=O)N1CCN(c2nc(NC(C(=O)O)c3ccc(C(F)(F)F)cc3)c3c(n2)C(=O)N(C(C)C)C3)CC1 (stereo not shown) [Example 35, {[2-(4-acetylpiperazin-1-yl)-6-isopropyl-7-oxo-6,7-dihydro-5H-pyrrolo[3,4-d]pyrimidin-4-yl]amino}[4-(trifluoromethyl)phenyl]acetic acid]
1800 nM	CCC(Nc1nc(N2CCN(C(C)=O)CC2)nc2c1CN(C(C)C)C2=O)c1ccc(C)cc1 (stereo not shown) [Example 36, 2-(4-acetylpiperazin-1-yl)-6-isopropyl-4-{[1-(4-methylphenyl)propyl]amino}-5,6-dihydro-7H-pyrrolo[3,4-d]pyrimidin-7-one]
> 30000 nM	CC(C)N1Cc2c(Nc3ccc(Cc4ccccc4)cc3)nc(N3CCOCC3)nc2C1=O [Example 37, 4-[(4-benzylphenyl)amino]-6-isopropyl-2-morpholin-4-yl-5,6-dihydro-7H-pyrrolo[3,4-d]pyrimidin-7-one]
12000 nM	CC(=O)N1CCN(c2nc(NCc3ccc4c(c3)CCCN4C)c3c(n2)C(=O)N(C(C)C)C3)CC1 [Example 38, 2-(4-acetylpiperazin-1-yl)-6-isopropyl-4-{[(1-methyl-1,2,3,4-tetrahydroquinolin-6-yl)methyl]amino}-5,6-dihydro-7H-pyrrolo[3,4-d]pyrimidin-7-one]
10000 nM	CCN(Nc1nc(N2CCN(C(C)=O)CC2)nc2c1CN(C(C)C)C2=O)c1ccc(C)cc1 [Example 39, 2-(4-acetylpiperazin-1-yl)-4-[2-ethyl-2-(4-methylphenyl)hydrazino]-6-isopropyl-5,6-dihydro-7H-pyrrolo[3,4-d]pyrimidin-7-one]
310 nM	CC(=O)N1CCN(c2nc(NC(C)c3ccc(C(C)C)cc3)c3c(n2)C(=O)N(C(C)C)C3)CC1 (stereo not shown) [Example 40, 2-(4-acetylpiperazin-1-yl)-6-isopropyl-4-{[1-(4-isopropylphenyl)ethyl]amino}-5,6-dihydro-7H-pyrrolo[3,4-d]pyrimidin-7-one]
650 nM	CC(=O)N1CCN(c2nc(NCc3ccc(C(C)C)cc3)c3c(n2)C(=O)N(C(C)C)C3)CC1 [Example 43, 2-(4-acetylpiperazin-1-yl)-6-isopropyl-4-[(4-isopropylbenzyl)amino]-5,6-dihydro-7H-pyrrolo[3,4-d]pyrimidin-7-one]
9600 nM	COCCNc1nc2c(c(N3CCCC3Cc3ccc(Cl)cc3)n1)CN(C(C)C)C2=O (stereo not shown) [Example 44, 4-[2-(4-chlorobenzyl)pyrrolidin-1-yl]-6-isopropyl-2-[(2-methoxyethyl)amino]-5,6-dihydro-7H-pyrrolo[3,4-d]pyrimidin-7-one]
2200 nM	CC(=O)NCCNc1nc2c(c(N3CCCC3Cc3ccc(Cl)cc3)n1)CN(C(C)C)C2=O (stereo not shown) [Example 45, N-[2-({4-[2-(4-chlorobenzyl)pyrrolidin-1-yl]-6-isopropyl-7-oxo-6,7-dihydro-5H-pyrrolo[3,4-d]pyrimidin-2-yl}amino)ethyl]acetamide]
2300 nM	CC(=O)N1CCN(c2nc3c(c(N4CCCC4Cc4ccccc4Cl)n2)CN(C(C)C)C3=O)CC1 (stereo not shown) [Example 46, 2-(4-acetylpiperazin-1-yl)-4-[2-(2-chlorobenzyl)pyrrolidin-1-yl]-6-isopropyl-5,6-dihydro-7H-pyrrolo[3,4-d]pyrimidin-7-one]
300 nM	CC(=O)N1CCN(c2nc3c(c(N4CCCC4Cc4cccc(Cl)c4)n2)CN(C(C)C)C3=O)CC1 (stereo not shown) [Example 48, 2-(4-acetylpiperazin-1-yl)-4-[2-(3-chlorobenzyl)pyrrolidin-1-yl]-6-isopropyl-5,6-dihydro-7H-pyrrolo[3,4-d]pyrimidin-7-one]
2000 nM	CC(C)N1Cc2c(nc(N3CCNC(=O)C3)nc2N2CCCC2Cc2ccc(Cl)cc2)C1=O (stereo not shown) [Example 49, 4-[2-(4-chlorobenzyl)pyrrolidin-1-yl]-6-isopropyl-2-(3-oxopiperazin-1-yl)-5,6-dihydro-7H-pyrrolo[3,4-d]pyrimidin-7-one]
150 nM	CC(=O)N1CCN(c2nc3c(c(N4CCCC4Cc4ccc(Cl)cc4)n2)CN(C(C)C)C3=O)CC1 (stereo not shown) [Example 50, 2-(4-acetylpiperazin-1-yl)-4-[2-(4-chlorobenzyl)pyrrolidin-1-yl]-6-isopropyl-5,6-dihydro-7H-pyrrolo[3,4-d]pyrimidin-7-one]
2700 nM	CC(=O)N1CCN(c2nc3c(c(N(Cc4ccccc4)CC4CC4)n2)CN(C(C)C)C3=O)CC1 [Example 51, 2-(4-acetylpiperazin-1-yl)-4-[benzyl(cyclopropylmethyl)amino]-6-isopropyl-5,6-dihydro-7H-pyrrolo[3,4-d]pyrimidin-7-one]
720 nM	CC(=O)N1CCN(c2nc3c(c(N4CCCC4c4ccc(Cl)cc4)n2)CN(C(C)C)C3=O)CC1 (stereo not shown) [Example 52, 2-(4-acetylpiperazin-1-yl)-4-[2-(4-chlorophenyl)pyrrolidin-1-yl]-6-isopropyl-5,6-dihydro-7H-pyrrolo[3,4-d]pyrimidin-7-one]
750 nM	CC(=O)N1CCN(c2nc(NC(C)c3ccc(Cl)cc3)c3c(n2)C(=O)N(C(C)C)C3)CC1 (stereo not shown) [Example 53, 2-(4-acetylpiperazin-1-yl)-4-{[1-(4-chlorophenyl)ethyl]amino}-6-isopropyl-5,6-dihydro-7H-pyrrolo[3,4-d]pyrimidin-7-one]
